# Data taken from BindingDB's records for doi:10.1016/j.bmc.2012.02.019 (Emory University, 2012).
# pKi: −log10 of the molar value.
# Assay: Displacement of [3H]-AVP from human V1b receptor after […] by liquid scintillation counting
structure (smiles),measurement,value
CS(=O)(=O)N1CCC(Oc2ccc(CC(=O)N3CCC(N4C(=O)CCc5ccccc54)CC3)c(OC/C=C/I)c2)CC1,pKi,< 6.00
